How the values were obtained:
[1] = Exposure of solids to 2 days at 40° C./75% RH (AAC), remeasured by XRPD; assay type: physicochemical; conditions: Table 1, lyophilization/recrystallization; ambient-dried solid after 2 days 40° C./75% RH; crystalline; pc = poor crystalline
[2] = Dynamic vapor sorption (DVS) moisture sorption isotherm, solid re-measured by HT-XRPD; assay type: physicochemical
Method: Moisture sorption isotherms were collected on a DVS Adventure system from Surface Measurement Systems (London, UK). Sample size was circa 10 mg of solid material. A full sorption and desorption isotherm was recorded by varying the relative humidity from 40-95-0-40% in steps of 10% at a constant temperature of 25° C. Weight equilibration per step was set at dm/dt of 0.002%/min. Afterwards the sample was measured by HT-XRPD.

In the case of CCc1cc(/C(C)=N/OCc2ccc(C3CCCCC3)c(C(F)(F)F)c2)ccc1CN1CC(C(=O)O)C1.CCc1cc(/C(C)=N/OCc2ccc(C3CCCCC3)c(C(F)(F)F)c2)ccc1CN1CC(C(=O)O)C1.O=C(O)/C=C/C(=O)O [crystalline Form A], the “HT-XRPD AAC-Amb-dried (solid form after AAC)” value [1] is reported as “Form A”, the “mass uptake at 80% RH” value ([2]; DVS, 25° C.) is reported as 2.4% and the “total mass difference between 0-95% RH” value ([2]; DVS, 25° C., RH cycle 40-95-0-40%) is reported as 3.6%. The “hygroscopicity according to the EP hygroscopicity classification” value ([2]; DVS, based on mass uptake at 80% RH) was “moderately hygroscopic” and the “physical stability after the sorption-desorption cycle (XRPD of solid recovered after DVS)” value ([2]; after DVS cycle 40-95-0-40% RH, 25° C.) was “physically stable”.
